According to patent publication US20160376240A1, “6 Phenyl or 6 Pyridin 3 YL Indazole Derivatives and Methods of Use” (ABBVIE INC., priority 2014, published 2016):

Target: T1, TrkA (Homo sapiens, UniProt P04629)
T1 construct: purchased Invitrogen PV3144
Assay: TrkA kinase inhibition, HTRF assay
Type: biochemical
Settings: LCK peptide substrate 125 nM, TrkA 2-10 nM pre-incubated with ATP 200 μM
Procedure: TrkA, TrkB, and TrkC enzymes were obtained from Invitrogen (as catalog numbers PV3144, PV3616, and PV3617, respectively). The ability of a compound to inhibit the enzymatic activity of the TrkA, TrkB, and TrkC enzymes was determined in separate assays. Enzyme activity was measured in an HTRF® (homogeneous time resolved fluorescence) assay, which detects enzymatic phosphorylation of a biotinylated synthetic peptide substrate (an LCK peptide analog, biotin-ahx-GAEEEIYAAFFA, from Genemed Synthesis). Phosphorylation is assessed by HTRF® in the presence of an anti-phosphotyrosine antibody conjugated to Eu^3+ cryptate (Cisbio) as donor fluorophore, and streptavidin conjugated to allophycocyanin (ProZyme) as acceptor fluorophore. The HTRF® signal was detected at two different wavelengths (620 nm and 665 nm) which were used to calculate the fluorescence ratio.
Each enzyme was titrated to a concentration optimized to ensure accurate measurement of the initial reaction rate. To allow the Trk enzymes to undergo activation and auto-phosphorylation, a 20 minute pre-incubation with ATP was carried out (at twice the final targeted enzyme and ATP concentration) prior to addition of test compound and the peptide substrate.
TrkA in vitro assays were performed by pre-incubating TrkA (2-10 nM) with ATP (200 μM) for 20 minutes at ambient temperature in 50 mM HEPES pH 7.4, 10 mM MgCl2, 2 mM MnCl2, 100 μM Na3VO4, 1 mM dithiothreitol, 0.01% BSA (bovine serum albumin). Then, to the activated Trk enzyme mixture was added the test compound in 2% dimethyl sulfoxide. After 10 minutes, the peptide substrate (125 nM) was added. After 1 hour, enzyme reactions were terminated by addition of equal reaction volumes of detection/stop reagent (containing 0.2 μg/mL anti-phosphotyrosine monoclonal antibody labeled with europium from Cisbio (catalog# PT66-K), and 4 μg/mL PhycoLink® Streptavidin-Allophycocyanin conjugate from ProZyme (catalog# PJ25S) in 60 mM EDTA in 40 mM HEPES pH 7.4, 480 mM KF, 0.01% Tween® 20 and 0.1% BSA bovine serum albumin) Reaction plates were stored at 4° C. overnight before reading the fluorescence ratio signal on a PerkinElmer EnVision™ fluorescence detector. Individual reaction wells were stopped at time points to obtain reaction rates. The test inhibitor compounds were assayed in duplicate, at half-log serial dilutions over a range of concentrations (e.g. starting at 50 μM or 5 μM as the high compound concentration). The percent Trk enzyme inhibition was calculated from the initial rates of the inhibited reactions relative to the uninhibited control. IC50 values were calculated by fitting the inhibition percent to the concentration of inhibitor [I] in the assay in equation 1 below, to solve for the IC50.
Inhibition %=100[I]/([I]+[IC50]) equation 1

T1 sequence (P04629 33-796): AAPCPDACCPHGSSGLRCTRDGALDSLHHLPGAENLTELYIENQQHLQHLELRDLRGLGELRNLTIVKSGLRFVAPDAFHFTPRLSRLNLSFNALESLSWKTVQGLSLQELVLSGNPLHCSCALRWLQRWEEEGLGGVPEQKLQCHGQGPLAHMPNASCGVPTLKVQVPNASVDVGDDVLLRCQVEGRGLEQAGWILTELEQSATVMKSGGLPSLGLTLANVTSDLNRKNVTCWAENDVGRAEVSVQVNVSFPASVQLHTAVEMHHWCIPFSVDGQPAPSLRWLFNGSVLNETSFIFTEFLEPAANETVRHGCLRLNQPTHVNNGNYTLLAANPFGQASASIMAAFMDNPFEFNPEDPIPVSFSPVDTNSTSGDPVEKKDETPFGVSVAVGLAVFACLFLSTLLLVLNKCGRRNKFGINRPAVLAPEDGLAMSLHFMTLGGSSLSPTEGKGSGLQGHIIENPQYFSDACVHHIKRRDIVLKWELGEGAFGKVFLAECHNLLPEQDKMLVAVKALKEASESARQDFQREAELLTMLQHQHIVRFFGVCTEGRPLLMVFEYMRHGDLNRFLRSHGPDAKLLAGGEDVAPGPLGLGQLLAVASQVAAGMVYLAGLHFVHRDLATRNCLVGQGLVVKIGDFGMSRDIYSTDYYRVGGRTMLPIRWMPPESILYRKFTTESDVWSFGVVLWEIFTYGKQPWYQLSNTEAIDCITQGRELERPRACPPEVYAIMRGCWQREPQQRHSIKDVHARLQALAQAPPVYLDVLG

## CNC(=O)c1ccc(-c2cc(OC(C)C(F)(F)F)c3c(N)n[nH]c3c2)cc1N1CCN(c2cnccn2)CC1 (stereo not drawn) [Example 38, 4-{3-amino-4-[(1,1,1-trifluoropropan-2-yl)oxy]-1H-indazol-6-yl}-N-methyl-2-[4-(pyrazin-2-yl)piperazin-1-yl]benzamide]
  IC50: 31.2 nM

## CNC(=O)c1ccc(-c2cc(O[C@H](C)C(F)(F)F)c3c(N)n[nH]c3c2)cc1N1CCOC(CC(C)C)C1 (stereo partly drawn) [Example 58, 4-(3-amino-4-{[(2R)-1,1,1-trifluoropropan-2-yl]oxy}-1H-indazol-6-yl)-2-(2-isobutylmorpholin-4-yl)-N-methylbenzamide]
  IC50: 673 nM

## CC(=O)Nc1ccc(-c2cc(OC3CCCC3)c3c(C)n[nH]c3c2)cc1NCCOc1ccccc1 [Example 127, N-{4-[4-(cyclopentyloxy)-3-methyl-1H-indazol-6-yl]-2-[(2-phenoxyethyl)amino]phenyl}acetamide]
  IC50: 49 nM

## NC(=O)c1ccc(-c2cc(O[C@H]3CCOC3)c3c(N)n[nH]c3c2)cc1N1CCN(c2ccccc2)CC1 [Example 66, 4-{3-amino-4-[(3S)-tetrahydrofuran-3-yloxy]-1H-indazol-6-yl}-2-(4-phenylpiperazin-1-yl)benzamide]
  IC50: 2.93 nM

## CC(=O)Nc1ccc(-c2cc(OC3CCOCC3)c3c(C)n[nH]c3c2)cc1OCCNC(=O)OC(C)C [Example 147, isopropyl (2-{2-acetamido-5-[3-methyl-4-(tetrahydro-2H-pyran-4-yloxy)-1H-indazol-6-yl]phenoxy}ethyl)carbamate]
  IC50: 30.9 nM

## CC(=O)Nc1ccc(-c2cc(OC3CCOCC3)c3c(C)n[nH]c3c2)cc1N1CCN(Cc2ccccc2)CC1 [Example 145, N-{2-(4-benzylpiperazin-1-yl)-4-[3-methyl-4-(tetrahydro-2H-pyran-4-yloxy)-1H-indazol-6-yl]phenyl}acetamide]
  IC50: 12.6 nM

## NC(=O)c1ccc(-c2cc(OC3CCCC3)c3c(N)n[nH]c3c2)cc1N1CCC(c2ccccc2)CC1 [Example 76, 4-[3-amino-4-(cyclopentyloxy)-1H-indazol-6-yl]-2-(4-phenylpiperidin-1-yl)benzamide]
  IC50: 24.5 nM

## CNC(=O)c1ccc(-c2cc(OC3CCOCC3)c3c(N)n[nH]c3c2)cc1N1CCN(CC2CC(F)(F)C2)CC1 [Example 171, 4-[3-amino-4-(tetrahydro-2H-pyran-4-yloxy)-1H-indazol-6-yl]-2-{4-[(3,3-difluorocyclobutyl)methyl]piperazin-1-yl}-N-methylbenzamide]
  IC50: 5.5 nM

## CC(=O)N1CCN(c2cc(-c3cc(OC4CCOCC4)c4c(N)n[nH]c4c3)ccc2C(N)=O)CC1 [Example 4, 2-(4-acetylpiperazin-1-yl)-4-[3-amino-4-(tetrahydro-2H-pyran-4-yloxy)-1H-indazol-6-yl]benzamide]
  IC50: 147 nM

## CN1CCC(Oc2cc(-c3ccc(C(=O)NC4CC4)c(N4CCN(c5ccccc5)CC4)c3)cc3[nH]nc(N)c23)CC1 [Example 62, 4-{3-amino-4-[(1-methylpiperidin-4-yl)oxy]-1H-indazol-6-yl}-N-cyclopropyl-2-(4-phenylpiperazin-1-yl)benzamide]
  IC50: 67.1 nM

## NC(=O)c1ccc(-c2cc(O[C@H]3CCOC3)c3c(N)n[nH]c3c2)cc1N1CCN(C2CC2)CC1 [Example 65, 4-{3-amino-4-[(3S)-tetrahydrofuran-3-yloxy]-1H-indazol-6-yl}-2-(4-cyclopropylpiperazin-1-yl)benzamide]
  IC50: 173 nM

## CNC(=O)c1ccc(-c2cc(OC3CCOCC3)c3c(C)n[nH]c3c2)cc1N1CCN(C(=O)NC(C)C)CC1 [Example 155, N-isopropyl-4-{2-(methylcarbamoyl)-5-[3-methyl-4-(tetrahydro-2H-pyran-4-yloxy)-1H-indazol-6-yl]phenyl}piperazine-1-carboxamide]
  IC50: 2.27 nM

## NC(=O)c1ccc(-c2ccc3c(N)n[nH]c3c2)cc1N1CCN(C2CCCCC2)CC1 [Example 85, 4-(3-amino-1H-indazol-6-yl)-2-(4-cyclohexylpiperazin-1-yl)benzamide]
  IC50: 2240 nM

## Cc1n[nH]c2cc(-c3ccc(NS(C)(=O)=O)c(N4CCN(C(=O)OC(C)(C)C)CC4)c3)cc(OC3CCOCC3)c12 [Example 162, tert-butyl 4-{2-[(methylsulfonyl)amino]-5-[3-methyl-4-(tetrahydro-2H-pyran-4-yloxy)-1H-indazol-6-yl]phenyl}piperazine-1-carboxylate]
  IC50: 28.1 nM

## CC(Oc1cc(-c2ccc(C(N)=O)c(N3CCN(CCC(C)(C)C)CC3)c2)cc2[nH]nc(N)c12)C(F)(F)F (stereo not drawn) [Example 100, 4-{3-amino-4-[(1,1,1-trifluoropropan-2-yl)oxy]-1H-indazol-6-yl}-2-[4-(3,3-dimethylbutyl)piperazin-1-yl]benzamide]
  IC50: 4.98 nM

## NC(=O)c1ccc(-c2ccc3c(N)n[nH]c3c2)cc1N1CCN(CC(=O)N2CCCC2)CC1 [Example 83, 4-(3-amino-1H-indazol-6-yl)-2-{4-[2-oxo-2-(pyrrolidin-1-yl)ethyl]piperazin-1-yl}benzamide]
  IC50: 8330 nM

## NC(=O)c1ccc(-c2cc(OC3CCCC3)c3c(N)n[nH]c3c2)cc1N1CCC(C(N)=O)CC1 [Example 79, 1-{5-[3-amino-4-(cyclopentyloxy)-1H-indazol-6-yl]-2-carbamoylphenyl}piperidine-4-carboxamide]
  IC50: 221 nM

## CNC(=O)c1ccc(-c2cc(OC(C)C(F)(F)F)c3c(N)n[nH]c3c2)cc1N1CCN(c2ccccc2)CC1 (stereo not drawn) [Example 33, 4-{3-amino-4-[(1,1,1-trifluoropropan-2-yl)oxy]-1H-indazol-6-yl}-N-methyl-2-(4-phenylpiperazin-1-yl)benzamide]
  IC50: 28 nM

## CNC(=O)c1ccc(-c2cc(O[C@@H](C)C(F)(F)F)c3c(N)n[nH]c3c2)cc1N1CCN(c2ncccn2)CC1 [Example 43, 4-(3-amino-4-{[(2S)-1,1,1-trifluoropropan-2-yl]oxy}-1H-indazol-6-yl)-N-methyl-2-[4-(pyrimidin-2-yl)piperazin-1-yl]benzamide]
  IC50: 63.1 nM

## CNC(=O)c1ccc(-c2cc(OC3CCOCC3)c3c(C)n[nH]c3c2)cc1N1CCN(Cc2ccccc2)C(=O)C1 [Example 159, 2-(4-benzyl-3-oxopiperazin-1-yl)-N-methyl-4-[3-methyl-4-(tetrahydro-2H-pyran-4-yloxy)-1H-indazol-6-yl]benzamide]
  IC50: 21.5 nM

## CNC(=O)c1ccc(-c2cc(OC3CCOCC3)c3c(C)n[nH]c3c2)cc1N1CCN(Cc2cccnc2)CC1 [Example 123, N-methyl-4-[3-methyl-4-(tetrahydro-2H-pyran-4-yloxy)-1H-indazol-6-yl]-2-[4-(pyridin-3-ylmethyl)piperazin-1-yl]benzamide]
  IC50: 3.75 nM

## CC(Oc1cc(-c2ccc(C(N)=O)c(N3CCN(C(=O)C4CC4)CC3)c2)cc2[nH]nc(N)c12)C(F)(F)F (stereo not drawn) [Example 103, 4-{3-amino-4-[(1,1,1-trifluoropropan-2-yl)oxy]-1H-indazol-6-yl}-2-[4-(cyclopropylcarbonyl)piperazin-1-yl]benzamide]
  IC50: 19.4 nM

## CC(=O)c1ccc(-c2cc(OC3CCOCC3)c3c(N)n[nH]c3c2)cc1N1CCN(CCC(C)(C)C)CC1 [Example 18, 1-{4-[3-amino-4-(tetrahydro-2H-pyran-4-yloxy)-1H-indazol-6-yl]-2-[4-(3,3-dimethylbutyl)piperazin-1-yl]phenyl}ethanone]
  IC50: 36.4 nM

## NC(=O)c1ccc(-c2ccc3c(N)n[nH]c3c2)cc1N1CCN(c2ccccn2)CC1 [Example 86, 4-(3-amino-1H-indazol-6-yl)-2-[4-(pyridin-2-yl)piperazin-1-yl]benzamide]
  IC50: 16.1 nM

## CNC(=O)c1ccc(-c2cc(O[C@H](C)C(F)(F)F)c3c(N)n[nH]c3c2)cc1N1CCN(c2cnccn2)CC1 [Example 55, 4-(3-amino-4-{[(2R)-1,1,1-trifluoropropan-2-yl]oxy}-1H-indazol-6-yl)-N-methyl-2-[4-(pyrazin-2-yl)piperazin-1-yl]benzamide]
  IC50: 121 nM

## Cc1n[nH]c2cc(-c3cncc(N4CCN(c5ccccc5)CC4)c3)cc(OC3CCCC3)c12 [Example 161, 4-(cyclopentyloxy)-3-methyl-6-[5-(4-phenylpiperazin-1-yl)pyridin-3-yl]-1H-indazole]
  IC50: 73.7 nM

## CNC(=O)c1ccc(-c2cc(OC3CCOCC3)c3c(C)n[nH]c3c2)cc1N1CCN(C(=O)OC(C)C(F)(F)F)CC1 (stereo not drawn) [Example 163, 1,1,1-trifluoropropan-2-yl 4-{2-(methylcarbamoyl)-5-[3-methyl-4-(tetrahydro-2H-pyran-4-yloxy)-1H-indazol-6-yl]phenyl}piperazine-1-carboxylate]
  IC50: 171 nM
